Values of other authors as cited in patent publication US10995093B2, “Synthesis of 2′-fluoro-6′-methylene-carbocyclic adenosine (FMCA) and 2′-fluoro-6′methylene-carbocyclic guanosine (FMCG)” (UNIVERSITY OF GEORGIA RESEARCH FOUNDATION, INC., priority 2016, dated 2021).
“Also recorded” adds a separate entry of the source.

How the values were obtained:
[1] = tested on: lamivudine, adefovir, and double lamivudine/entecavir-resistant mutants; conditions: drug-resistant mutants
[2] = tested on: lamivudine/entecavir-resistant clone (L180M+M204V+S202G)
[3] = no significant toxicity observed up to 100 μM

In the case of `C=C1[C@@H](n2cnc3c(N)ncnc32)[C@@H](F)[C@H](O)[C@H]1CO` [FMCA, (1R,3R,5R)-3-(6-amino-9H-purin-9-yl)-2-fluoro-5-(hydroxymethyl)-4-methylenecyclopentanol], the “activity against lamivudine, adefovir, and double lamivudine/entecavir-resistant mutants” value [1] is listed as “significant activity”, the “antiviral activity against lamivudine/entecavir-resistant clone” value [2] is listed as “potential antiviral activity” and the “activity against wild-type HBV” value (wild-type HBV) is listed as “significant activity; also recorded: potential antiviral activity”. The “mitochondrial and cellular toxicity, concentration up to which no significant toxicity was observed” value [3] was greater than 100 µM.
